Test system: primordial germ cells in gonads from female mouse fetuses at 12.5 dpc
Experiment: In vitro organ culture of gonad (secondary follicle formation)
Format: cell-based
Settings: (vii) FBS/1 μM MPP group, 1 μM day 5-11
Description: For the medium of the organ culture, the basal medium supplemented with FBS (Gibco, Thermo Fisher Scientific Inc.), SPS (SAGE In vitro Fertilization), the estrogen receptor antagonist, 7α, 17β-[9-([4,4,5,5,5-pentafluoropentyl]sulfinyl)nonyl]estra-1,3,5(10)-triene-3,17-diol; ICI 182,780 (ICI; Tocris Bioscience), 4-hydroxytamoxifen (Sigma-Aldrich), and MPP (Methylpiperidino pyrazole; Cayman Chemical) were added at the indicated concentrations for each experimental group below. The α-MEM medium (Gibco, Thermo Fisher Scientific Inc.) supplemented with 1.5 mM 2-O-α-d glucopyranosyl-1-ascorbic acid (Tokyo Chemical Industry), 10 units/mL penicillin, and 10 μg/mL streptomycin (Sigma-Aldrich) was used as a basal medium (referred to the basal medium hereafter as α-MEM).
ICI 182,780 and 4-hydroxytamoxifen was prepared as follows. ICI 182,780 and 4-hydroxytamoxifen was diluted to 100 mM using DMSO, and cryopreserved stock was prepared. MPP was diluted to 10 mM using DMSO, and cryopreserved stock was prepared. 1 mM solutions of ICI 182, 780 and 4-hydroxytamoxifen were prepared by diluting the 100 mM stocks 100-fold with DMSO just before use and were added to the medium at the indicated final concentrations for each experimental group. MPP was added to the medium at 1 μM as the final concentration just before use.
The gonads for the organ culture were collected with mesonephros or without mesonephros from female mouse fetuses at 12.5 dpc (FIG. 1a). 2.2 ml of the medium was added to each 6-well culture plate used for the organ culture. Transwell®-COL membrane (3.0-μm pore size, 24-mm diameter; Corning) was put on each well of the 6-well culture plate. The gonads were transferred on the membrane and were cultured for 17 days at 37° C. under 5% CO2 and 95% air. Approximately half of the medium in each well was replaced with fresh medium every other day. In the example in which the gonad was cultured with mesonephros, mesonephros was removed from the gonad at day 7 of the organ culture.
The in vitro organ culture of the gonads was performed according to the following conditions described below. The gonads were cultured for total 17 days in each conditions below (FIG. 2):
(i) culture for the complete 17 days period in 10% FBS containing α-MEM (α-MEM+FBS; FBS group);
(ii) culture for the complete 17 days period in 10% SPS containing α-MEM (α-MEM+SPS; SPS group);
(iii) culture for the complete 17 days period in 10% KSR containing α-MEM (α-MEM+KSR; KSR group);
(iv) culture in 10% FBS containing α-MEM for 4 days with a shift to 10% SPS containing α-MEM for 6 days from day 5 and a shift to 10% FBS containing α-MEM until day 17 from day 11 (αMEM+FBS/SPS; FBS/SPS group);
(v) culture in 10% FBS containing α-MEM for 4 days with a shift to 10% FBS containing α-MEM with the addition of 10 nM, 100 nM, 1 μM, 5 μM, or 10 μM (final concentration) ICI for 6 days from day 5 and a shift to 10% FBS containing α-MEM until day […] (αMEM+FBS/10 nM ICI; FBS/10 nM ICI group, αMEM+FBS/100 nM ICI; FBS/100 nM ICI group, αMEM+FBS/1 μM ICI; FBS/1 μM ICI group, αMEM+FBS/5 μM ICI; FBS/5 μM ICI group, or αMEM+FBS/10 μM ICI; FBS/10 μM ICI group);
(vi) culture in 10% FBS containing α-MEM for 4 days with a shift to 10% FBS containing α-MEM with the addition of 1 μM (final concentration) 4-hydroxytamoxifen for 6 days from day 5 and a shift to 10% FBS containing α-MEM until day 17 from day 11 (αMEM+FBS/1 μM Tamoxifen; FBS/1 μM Tamoxifen group);
(vii) culture in 10% FBS containing α-MEM for 4 days with a shift to 10% FBS containing α-MEM with the addition of 1 μM (final concentration) MPP for 6 days from day 5 and a shift to 10% FBS containing α-MEM until day 17 from day 11 (αMEM+FBS/1 μM MPP; FBS/1 μM MPP group).
Vitrification and warming were conducted as follows by reference to Wang, X. et al., “Successful in vitro culture of pre-antral follicles derived from vitrified murine ovarian tissue: oocyte maturation, fertilization, and live births.” Reproduction 141, 183-191 (2011). […]

Cc1c(-c2ccc(O)cc2)nn(-c2ccc(O)cc2)c1-c1ccc(OCCN2CCCCC2)cc1 [MPP, 4-[1-(4-hydroxyphenyl)-4-methyl-5-[4-[2-(1-piperidinyl)ethoxy]phenyl]-1H-pyrazol-3-yl]-phenol]
secondary follicles collected from one ovary: 15

From patent publication US11773368B2, “Culture method for differentiating primordial germ cells into functionally mature oocytes” (TOKYO UNIVERSITY OF AGRICULTURE, priority 2015, dated 2023)
